Experimental data reported in US11319289B2, “5-hydroxy pyridine-based compound for use as P2X1 and P2X3 receptor antagonist and pharmaceutical composition comprising same” (GWANGJU INSTITUTE OF SCIENCE AND TECHNOLOGY, priority 2017, dated 2022).
Where two headings read alike, the source gives them in different places.

Columns and labels:
[1] = biological target: T1, CYP2C9 (Homo sapiens, UniProt P11712); experiment: CYP inhibition assay (Vivid fluorometric), 2C9; assay type: biochemical; settings: human, recombinant human CYP2C9, pH 8; 1 μM in Table 5; read-out: CYP450 inhibition, 2C9 isozyme
T1 construct: purchased Invitrogen
Description: CYP450 (1A2, 2C9, 3A4) enzyme assay was performed by a fluorometric assay using a Vivid® CYP450 screening kit (Invitrogen, USA, CA) in a 96-well black plate according to manufacturer's instructions with some modifications. The assay was performed at room temperature, and the final assay volume was 100 μL. […]
A master pre-mixture (enzyme (0.5 nmol recombinant human CYP450 enzyme)/NADP regeneration solution (333 mM glucose-6-phosphate dissolved, 30 U/mL glucose-6-phosphate dehydrogenase in 100 mM KH2PO4 solution at pH 8.0)) was prepared as a CYP450 reaction buffer (200 mM KH2PO4, pH 8.0). The master pre-mixture was added to each well of the 96 well plate, followed by the vehicle DMSO (control) and test compounds, and the mixture was preincubated for 10 minutes in the plate for background reading. Subsequently, the enzyme reaction was immediately initiated through the addition of CYP450 substrate/NADP^+ mixture. After incubation for 40 minutes, the fluorescence of the product was measured with a CHAMELEON™ multi-technology plate reader (2C9, 3A4: excitation wavelength of 530 nm and emission wavelength of 590 nm, 1A2: excitation wavelength of 415 nm and emission wavelength of 460 nm). The effect of the test compounds on CYP450 (1A2, 2C9, 3A4) was expressed as the percentage of enzyme activity.

[2] = Plasma and brain concentrations after intravenous administration of Compound 28 in rats; assay type: in vivo, SD rats; settings: for concentration in the brain tissue: 0.5 hour after intravenous administration of Compound 28; for Kp / concentration at 0.5 h / concentration at 2 h / concentration at 4 h / concentration at 8 h / Kp at 0.5 h / Kp at 2 h / Kp at 4 h / Kp at 8 h: male, rat, iv; for Kp: SD, 5 mg/kg, after i.v. Compound 28, over the time points of Table 6, read-out: brain to plasma ratio; for Kp / Kp at 0.5 h / Kp at 2 h / Kp at 4 h / Kp at 8 h: brain/plasma; for concentration at 0.5 h / Kp at 0.5 h: 0.5 hr after i.v. Compound 28 5 mg/kg; for concentration at 0.5 h / concentration at 2 h / concentration at 4 h / concentration at 8 h / Kp at 0.5 h / Kp at 2 h / Kp at 4 h / Kp at 8 h: rats, mean±SD; for concentration at 2 h / Kp at 2 h: 2 hr after i.v. Compound 28 5 mg/kg; for concentration at 4 h / Kp at 4 h: 4 hr after i.v. Compound 28 5 mg/kg; for concentration at 8 h / Kp at 8 h: 8 hr after i.v. Compound 28 5 mg/kg; for Kp at 0.5 h / Kp at 2 h / Kp at 4 h / Kp at 8 h: read-out: Brain to plasma ratio
Description: 7 to 8-weeks old male SD rats (weight of 250 to 290 g) were purchased from SAMTACO (Osan, […], South Korea) and given commercial rat feed (SAMTACO, Osan, Kyungki-Do, South Korea) and water to be consumed freely. 3 rats were housed per each cage at a temperature of 23±2° C. and a relative humidity of 50 to 60% under light-darkness cycles of 12±12 hours. The rats were allowed to acclimate to these conditions for at least one week before the experiments was carried out. The rats were fasted for 12 hours before the experiment and given the tap water to be consumed freely. Compound 28 was administered to the caudal vein at a dose of 5 mg/kg. At 0.5, 2, 4 and 8 hours after intravenous administration, each animal was sacrificed by cervical dislocation. Blood samples were centrifuged at 12,000 rpm for 5 minutes and immediately stored at […] until analysis. After collecting the blood samples, the brains were harvested. Then, the brain tissues were accurately weighed and homogenized with 4-fold volumes of distilled water (IKA T10 basic homogenizer, IKA, Staufen, Germany). The homogenized brain samples were centrifuged at 12,000 rpm for 10 minutes and stored at −20° C. until analysis of 500 μl aliquots. Quantification of the samples was performed using an LC-MS/MS system. The HPLC system is composed of an Agilent 1290 series rapid resolution LC system that includes a binary pump (model: G4220A), an autosampler (model: G4226A) and a column oven (model: G1316C). Mass spectrometer analysis was performed using a Sciex 4000 Q-Trap® mass spectrometer (Applied Biosystems Sciex, Toronto, Ontario, Canada) equipped with an electrospray ionization source. Data acquisition and quantification were performed using the Analyst software version 1.6 from AB SCIEX, and chromatographic separations were performed using Gemini NX C18 (2.0×100 mm, 3 μm, Phenomenex, USA). The mobile phase consisted of ACN (0.1% formic acid) and water (0.1% formic acid) (50:50, v/v). The flow rate was 0.25 mL/min, and the injection volume was set at 5 μL. Mass spectrometry was optimized and performed using a multiple reaction monitoring (MRM) scan in cation mode. The m/z transition was set from 392.1 to 360.2 for Compound 28 and from 378.2 to 360.2 for Compound 29. Preparation of plasma and brain homogenous samples includes protein precipitation with acetonitrile. In 1.5 mL polyethylene microtubes, 5 μL of IS (cimetidine, 10 μg/ml) was added to 50 μL of plasma or tissue homogenate. Subsequently, 150 μl of acetonitrile (extraction solvent) was added to the tube. After vortexing for 30 seconds, the mixture was centrifuged for 5 minutes at 12,000 rpm. 10 μl of supernatant was injected directly into the HPLC column.

[3] = Plasma protein binding by rapid equilibrium dialysis, human; assay type: in vitro ADME; settings: plasma (50% in PBS)
Description: Plasma protein binding was measured by rapid equilibrium dialysis (RED). A DMSO stock solution of the compounds was prepared at a concentration of 10 mM and diluted to a concentration of […] with 50% plasma in phosphate buffered saline (PBS, pH 7.4). Plasma samples (100 μL) and PBS (300 μL) were added to the sample chamber and the buffer chamber, respectively, after which the RED device was turn on and the samples were incubated in a shaking incubator at 37° C. for 4 hours. After dialysis, 50 μl aliquots were collected from each side of the chamber. 50 μl of blank plasma was added to the buffer sample, and 50 μl of PBS was also added to the plasma sample. 200 μL of acetonitrile containing an internal standard was added to each sample. The samples were centrifuged at 3200 g for 20 minutes at 4° C., and the supernatants were obtained and analyzed by an LC-MS/MS system. The plasma protein binding rate was calculated as follows: Free form (%)=(Buffer chamber/Plasma chamber)×100 Bound form (%)=100−Free form (%).

[4] = brain, read-out: Brain concentration
[5] = plasma, read-out: Plasma concentration
[6] = pH 7.4, human plasma, read-out: Plasma protein binding rate, Human (converted)

T1 sequence (P11712 whole entry): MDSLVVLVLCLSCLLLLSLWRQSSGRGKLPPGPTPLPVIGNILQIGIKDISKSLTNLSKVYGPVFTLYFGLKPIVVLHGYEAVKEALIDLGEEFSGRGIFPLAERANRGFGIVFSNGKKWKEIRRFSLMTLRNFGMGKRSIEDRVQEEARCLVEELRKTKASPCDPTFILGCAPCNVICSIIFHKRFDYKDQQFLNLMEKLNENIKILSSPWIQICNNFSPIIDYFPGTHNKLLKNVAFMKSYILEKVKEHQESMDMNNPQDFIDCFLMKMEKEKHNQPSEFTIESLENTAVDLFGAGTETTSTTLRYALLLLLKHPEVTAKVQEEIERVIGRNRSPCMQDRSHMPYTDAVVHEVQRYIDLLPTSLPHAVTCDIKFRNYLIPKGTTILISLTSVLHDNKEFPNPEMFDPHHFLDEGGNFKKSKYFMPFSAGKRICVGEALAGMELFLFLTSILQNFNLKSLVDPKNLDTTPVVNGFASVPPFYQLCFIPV

inhibition at 40 min, 1 µM [1] [%] | brain concentration of Compound 28 relative to Compound 29 ([2]; 0.5 hour after i.v. Compound 28) [times] | concentration in the brain tissue [2] [μg/g tissue] | Kp [2] | concentration at 0.5 h [2, 4] [ng/g] | concentration at 2 h [2, 4] [ng/g] | concentration at 4 h [2, 4] [ng/g] | concentration at 8 h [2, 4] [ng/g] | Kp at 0.5 h [2] | Kp at 2 h [2] | Kp at 4 h [2] | Kp at 8 h [2] | concentration at 0.5 h [2, 5] [ng/mL] | concentration at 2 h [2, 5] [ng/mL] | concentration at 4 h [2, 5] [ng/mL] | concentration at 8 h [2, 5] [ng/mL] | fraction unbound at 4 h, 5 µM [3, 6] | fraction unbound at 4 h, 5 µM ([3]; pH 7.4, species not given, read-out: plasma protein binding) | Compound
28 ± 3 | 50 | 1.11 | 1.13 to 1.79 | 1110 ± 360 | 90 ± 10 | 50 ± 10 | 30 ± 10 | 1.79 ± 0.44 | 1.13 ± 0.25 | 0.94 ± 0.21 | 1.19 ± 0.41 | 620 ± 140 | 80 ± 20 | 60 ± 10 | 20 ± 10 | 0.005 |  | CCCc1nc(Cc2cccc(Oc3ccccc3)c2)c(C)c(C(=O)OC)c1O [Compound 28, Methyl 3-hydroxy-5-methyl-6-(3-phenoxybenzyl)-2-propylisonicotinate]
26 ± 2 |  | 0.022 | < 0.25 | 22 ± 3 | 2 ± 1 | 1 | 1 ± 1 | 0.24 ± 0.13 | 0.08 ± 0.02 | 0.05 ± 0.03 | 0.1 ± 0.12 | 110 ± 50 | 30 | 20 ± 10 | 10 | 0.001 ± 6.01e-07 | < 0.01 | CCCc1nc(Cc2cccc(Oc3ccccc3)c2)c(C)c(C(=O)O)c1O [Compound 29, 3-Hydroxy-5-methyl-6-(3-phenoxybenzyl)-2-propylisonicotinic acid]
